The series can be described thus: activity coefficient (dimensionless); of the first substance listed, at infinite dilution; xn = mol fraction of the nth substance listed. As to conditions: Liquid, Chromatography, x1 = 0.

Molecules are shown by their SMILES. Numbers after ± are expanded uncertainties.

Take `CCC(=O)CC` [pentan-3-one] + Cn1cc[n+](COCCCOC[n+]2ccn(C)c2)c1.O=S(=O)([N-]S(=O)(=O)C(F)(F)F)C(F)(F)F.O=S(=O)([N-]S(=O)(=O)C(F)(F)F)C(F)(F)F: the activity coefficient (323.15 K) was found to be 0.6 ± 0.04, the activity coefficient (333.15 K) worked out at 0.63 ± 0.04 and the activity coefficient (343.15 K) came to 0.63 ± 0.04.

Regarding `CCC[N+](=O)[O-]` [1-nitropropane] + CCCOC[n+]1ccn(Cc2ccccc2)c1.O=S(=O)([N-]S(=O)(=O)C(F)(F)F)C(F)(F)F, the activity coefficient (323.15 K) is 0.53 ± 0.04, the activity coefficient (333.15 K) was determined as 0.46 ± 0.04 and the activity coefficient (343.15 K) is 0.47 ± 0.04.

As for `CC(C)OC(C)C` [diisopropyl ether] + CCCOC[n+]1ccn(Cc2ccccc2)c1.N#C[N-]C#N, the activity coefficient is 12.8 ± 0.87 (323.15 K), 12.1 ± 0.83 (333.15 K) and 12 ± 0.82 (343.15 K).

Turning to `ClCCl` [dichloromethane] + CCCOC[n+]1ccn(Cc2ccccc2)c1.N#C[N-]C#N, the activity coefficient (323.15 K) worked out at 0.58 ± 0.04, the activity coefficient (333.15 K) came to 0.63 ± 0.04 and the activity coefficient (343.15 K) turned out to be 0.68 ± 0.05.

`CC(C)O` [propan-2-ol] + CCCOC[n+]1ccn(C)c1.N#C[N-]C#N: the activity coefficient runs as follows: (323.15 K) 1.1 ± 0.07; (333.15 K) 1.07 ± 0.07; (343.15 K) 1.04 ± 0.07.

In the case of `Cc1ccc(C)cc1` [1,4-dimethylbenzene] + CCCOC[n+]1ccn(Cc2ccccc2)c1.O=S(=O)([N-]S(=O)(=O)C(F)(F)F)C(F)(F)F, the activity coefficient amounted to 1.56 ± 0.1 (323.15 K), 1.37 ± 0.09 (333.15 K) and 1.34 ± 0.09 (343.15 K).

With `CCCCCCCCC` [nonane] + CCCCCCCCn1cc[n+](COCCCOC[n+]2ccn(CCCCCCCC)c2C)c1C.O=S(=O)([N-]S(=O)(=O)C(F)(F)F)C(F)(F)F.O=S(=O)([N-]S(=O)(=O)C(F)(F)F)C(F)(F)F, the activity coefficient reads like this: (323.15 K) 8.26 ± 0.56; (333.15 K) 7.45 ± 0.51; (343.15 K) 7.1 ± 0.48.

Regarding `CC1CCCC1` [methylcyclopentane] + CCCCCCCCn1cc[n+](COCCC)c1C.N#C[N-]C#N, the activity coefficient was 4.37 ± 0.3 (323.15 K), 4.16 ± 0.28 (333.15 K) and 4.16 ± 0.28 (343.15 K).

Turning to `c1ccncc1` [pyridine] + CN(C)c1cc[n+](COCCCOC[n+]2ccc(N(C)C)cc2)cc1.O=S(=O)([N-]S(=O)(=O)C(F)(F)F)C(F)(F)F.O=S(=O)([N-]S(=O)(=O)C(F)(F)F)C(F)(F)F, the activity coefficient by setting is: (323.15 K) 0.29 ± 0.03; (333.15 K) 0.31 ± 0.03; (343.15 K) 0.32 ± 0.03.

For the compound `CCCCCCCCCCCC` [dodecane] + CN(C)c1cc[n+](COCCCOC[n+]2ccc(N(C)C)cc2)cc1.O=S(=O)([N-]S(=O)(=O)C(F)(F)F)C(F)(F)F.O=S(=O)([N-]S(=O)(=O)C(F)(F)F)C(F)(F)F, the activity coefficient reads like this: (323.15 K) 156 ± 11; (333.15 K) 137 ± 9.4; (343.15 K) 124 ± 8.5.

With `CCCCCCCC` [octane] + Cn1cc[n+](COCCCOC[n+]2ccn(C)c2)c1.O=S(=O)([N-]S(=O)(=O)C(F)(F)F)C(F)(F)F.O=S(=O)([N-]S(=O)(=O)C(F)(F)F)C(F)(F)F, the activity coefficient (323.15 K) was determined as 60.4 ± 4.1, the activity coefficient (333.15 K) was 60.6 ± 4.2 and the activity coefficient (343.15 K) worked out at 38.4 ± 2.6.

Take `Cc1ccccc1` [toluene] + CCCOC[n+]1ccn(C)c1.O=S(=O)([N-]S(=O)(=O)C(F)(F)F)C(F)(F)F: the activity coefficient amounted to 1.7 ± 0.11 (323.15 K), 1.68 ± 0.11 (333.15 K) and 1.69 ± 0.11 (343.15 K).

Regarding `CCCCCC` [hexane] + CCCCCCCCn1cc[n+](COCCCOC[n+]2ccn(CCCCCCCC)c2C)c1C.N#C[N-]C#N.N#C[N-]C#N, the activity coefficient (323.15 K) is 8.9 ± 0.6.

For `Cc1ccc(C)cc1` [1,4-dimethylbenzene] + CCCCCCCCn1cc[n+](COCCCOC[n+]2ccn(CCCCCCCC)c2C)c1C.N#C[N-]C#N.N#C[N-]C#N, the activity coefficient was determined as 1.34 ± 0.09 (323.15 K), 1.35 ± 0.09 (333.15 K) and 1.36 ± 0.09 (343.15 K).

Regarding `CO` [methanol] + CCCOC[n+]1ccn(Cc2ccccc2)c1.F[B-](F)(F)F, the activity coefficient was 1.13 ± 0.07 (323.15 K), 1.04 ± 0.07 (333.15 K) and 0.97 ± 0.06 (343.15 K).

As to `CO` [methanol] + CCCOC[n+]1ccn(C)c1.F[B-](F)(F)F, the activity coefficient (323.15 K) stood at 1.29 ± 0.08, the activity coefficient (333.15 K) turned out to be 1.2 ± 0.08 and the activity coefficient (343.15 K) came to 1.11 ± 0.07.

`Cc1cccc(C)c1` [1,3-dimethylbenzene] + CN(C)c1cc[n+](COCCCOC[n+]2ccc(N(C)C)cc2)cc1.O=S(=O)([N-]S(=O)(=O)C(F)(F)F)C(F)(F)F.O=S(=O)([N-]S(=O)(=O)C(F)(F)F)C(F)(F)F: the activity coefficient reads like this: (323.15 K) 1.36 ± 0.09; (333.15 K) 1.38 ± 0.09; (343.15 K) 1.4 ± 0.09.

In the case of `Cc1ccccc1` [toluene] + CCCOC[n+]1ccc(N(C)C)cc1.O=S(=O)([N-]S(=O)(=O)C(F)(F)F)C(F)(F)F, the activity coefficient amounted to 0.99 ± 0.06 (323.15 K), 1.04 ± 0.07 (333.15 K) and 1.05 ± 0.07 (343.15 K).

As to `CC(C)OC(C)C` [diisopropyl ether] + CCCCCCCCn1cc[n+](COCCCOC[n+]2ccn(CCCCCCCC)c2C)c1C.N#C[N-]C#N.N#C[N-]C#N, the activity coefficient (323.15 K) worked out at 4.38 ± 0.3, the activity coefficient (333.15 K) came out at 4.07 ± 0.28 and the activity coefficient (343.15 K) stood at 3.93 ± 0.27.

For `CCCCCCCCCC` [decane] + CCCCCCCCn1cc[n+](COCCC)c1C.O=S(=O)([N-]S(=O)(=O)C(F)(F)F)C(F)(F)F, the activity coefficient (323.15 K) came to 8.9 ± 0.61, the activity coefficient (333.15 K) stood at 8.47 ± 0.58 and the activity coefficient (343.15 K) was 7.92 ± 0.54.

Regarding `CCC(C)=O` [butanone] + CCCOC[n+]1ccn(Cc2ccccc2)c1.F[B-](F)(F)F, the activity coefficient (323.15 K) came to 1.06 ± 0.07, the activity coefficient (333.15 K) was 0.96 ± 0.06 and the activity coefficient (343.15 K) turned out to be 0.89 ± 0.06.

Turning to `C[N+](=O)[O-]` [nitromethane] + CCCOC[n+]1ccn(C)c1.N#C[N-]C#N, the activity coefficient turned out to be 0.69 ± 0.05 (323.15 K), 0.7 ± 0.05 (333.15 K) and 0.73 ± 0.05 (343.15 K).

Take `C#CCCCCC` [1-heptyne] + CCCCCCCCn1cc[n+](COCCCOC[n+]2ccn(CCCCCCCC)c2C)c1C.N#C[N-]C#N.N#C[N-]C#N: the activity coefficient (323.15 K) was 2.1 ± 0.14, the activity coefficient (333.15 K) came to 2.12 ± 0.14 and the activity coefficient (343.15 K) was 2.15 ± 0.15.

As to `CCCCCCCCCC` [decane] + N#C[N-]C#N.N#C[N-]C#N.c1ccc(Cn2cc[n+](COCCCOC[n+]3ccn(Cc4ccccc4)c3)c2)cc1, the activity coefficient reads like this: (323.15 K) 420 ± 29; (333.15 K) 371 ± 25; (343.15 K) 321 ± 22.

As to `C1CCCCCC1` [cycloheptane] + CCCCCCCCn1cc[n+](COCCC)c1C.O=S(=O)([N-]S(=O)(=O)C(F)(F)F)C(F)(F)F, the activity coefficient (323.15 K) is 6.43 ± 0.44, the activity coefficient (333.15 K) came out at 8.72 ± 0.6 and the activity coefficient (343.15 K) was 11.5 ± 0.78.

On to `CCCCCCC` [heptane] + CCCCCCCCn1cc[n+](COCCC)c1C.N#C[N-]C#N, for which the activity coefficient runs as follows: (323.15 K) 8.88 ± 0.61; (333.15 K) 8.18 ± 0.56; (343.15 K) 7.95 ± 0.54.

Consider `CCCCCCCC` [octane] + CCCOC[n+]1ccc(N(C)C)cc1.O=S(=O)([N-]S(=O)(=O)C(F)(F)F)C(F)(F)F, for which the activity coefficient is, setting by setting: (323.15 K) 22.2 ± 1.5; (333.15 K) 20.5 ± 1.4; (343.15 K) 17.7 ± 1.2.

The values are drawn from the NIST ThermoML archive (doi:10.1016/j.fluid.2014.11.020).
